From ChEMBL document CHEMBL1201862, “PubChem BioAssay data set” (2004)
Calls of active or inactive are those of the source.

Key:
[1] = IGROV1 ovarian cancer cell cytotoxicity, dose response, PAX8 inhibitor project, plate reader, dry powder samples (AID 743043); type: functional, cell-based; conditions: IGROV-1
[2] = cytotoxicity dependent on PAX8, dose response, cell-based, plate reader, dry powder (AID 743049); type: functional
Paired box protein Pax-8 = Paired box protein Pax-8 (Homo sapiens, UniProt Q06710); experiment: inhibitors of PAX8-driven TPO luciferase reporter, dose response, RMG-I cells, cherry-pick (AID 687027); type: functional, cell-based;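 note: luciferase reporter driven by Pax8 target thyroperoxidase promoter measured by SteadyGlo luminescence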
[3] = PAX2 cell-based inhibition, dose response, selectivity assay for PAX8 inhibitor project, plate reader, dry powder samples (AID 743048); type: functional;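 note: HEK293 cells carrying a WT1 promoter luciferase reporter driven by expressed Pax2; potency is for inhibition of Pax2 driven reporter signal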
Beta-galactosidase = Beta-galactosidase (Escherichia coli, UniProt Q8VNN2); experiment: Dose response counterscreen for EBI2 assay utilizing the enzyme, b-galactosidase.; type: functional
[4] = cytotoxicity in OVCAR4 cells, dose response, cytotoxicity control for PAX8 inhibitor project, cell-based, plate reader, dry powder, SA11 (AID 743150); type: functional; conditions: OVCAR-4
[5] = cytotoxicity in COV434 cells, dose response, cytotoxicity control for PAX8 inhibitor project, cell-based, plate reader, dry powder, SA7 (AID 743145); type: functional
[6] = cytotoxicity in COV362 ovarian cancer cells, dose response, cytotoxicity control for PAX8 inhibitor project, cell-based, plate reader, dry powder, SA12 (AID 743144); type: functional
[7] = cytotoxicity in OV-90 ovarian cancer cells, dose response, PAX8 inhibitor project, cell-based, plate reader, dry powder, SA8 (AID 743149); type: functional
[8] = NIH:OVCAR-3 ovarian cancer cell cytotoxicity, dose response, PAX8 inhibitor project, plate reader, dry powder samples (AID 743044); type: functional, cell-based
Vero [9] = experiment: cells; type: functional; conditions: Chlorocebus sabaeus
[10] = A Cell-Based Counter Screen testing Compounds that Inhibit VEEV TC-83, in strain KU V3526.; type: functional
Cytochrome P450 3A4 = Cytochrome P450 3A4 (Homo sapiens, UniProt P08684);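 note: CYP3A4 tested as one member of a cytochrome P450 panel screen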
Cytochrome P450 1A2 = target: T1, Cytochrome P450 1A2 (Homo sapiens, UniProt P05177);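 note: PubChem cytochrome P450 panel assay, CYP1A2 panel member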
T1 sequence (P05177 whole entry): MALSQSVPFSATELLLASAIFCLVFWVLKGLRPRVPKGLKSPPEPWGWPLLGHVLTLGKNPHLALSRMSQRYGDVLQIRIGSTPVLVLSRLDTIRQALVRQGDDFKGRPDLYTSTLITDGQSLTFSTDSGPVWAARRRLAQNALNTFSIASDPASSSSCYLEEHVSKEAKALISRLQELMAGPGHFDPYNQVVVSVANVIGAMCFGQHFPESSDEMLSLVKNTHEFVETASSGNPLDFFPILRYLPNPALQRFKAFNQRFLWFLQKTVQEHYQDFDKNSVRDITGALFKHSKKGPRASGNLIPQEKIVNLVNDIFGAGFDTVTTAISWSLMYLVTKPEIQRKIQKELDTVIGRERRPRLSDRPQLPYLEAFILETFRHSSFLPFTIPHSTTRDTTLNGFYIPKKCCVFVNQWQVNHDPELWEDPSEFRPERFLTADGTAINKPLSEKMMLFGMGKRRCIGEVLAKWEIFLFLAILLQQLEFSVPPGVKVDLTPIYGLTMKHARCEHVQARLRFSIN

[11] = Vero 76 cell cytotoxicity, dose response, cytotoxicity control, set 2 (AID 602240); type: functional; conditions: Venezuelan equine encephalitis virus
[12] = HEp-2 cell cytotoxicity, dose response, cytotoxicity control for RSV inhibitor project, HTS (AID 2410); type: functional; conditions: human respiratory syncytial virus
[13] = A Cell-Based Confirmatory Screen for Compounds that Inhibit VEEV, TC-83 (2).; type: functional
Vero [14] = experiment: cells; type: functional, cell-based; conditions: Chlorocebus sabaeus
Beta Lactamase = Beta Lactamase (Pseudomonas aeruginosa, UniProt Q932Y6); experiment: beta-lactamase reporter inhibitor potency, dose response, artefact control for TLR9-MyD88 binding inhibitor project, BLA reporter cells, FRET fluorescence (AID 588341); type: cell-based;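 note: cell based assay in CHO-K1 cells stably expressing beta-lactamase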
CHO = experiment: cytotoxicity in TLR9-MyD88 CHO cells, dose response, cytotoxicity control for TLR9-MyD88 binding inhibitor project, cell-based, luminescence (AID 588339); type: functional, hamster; conditions: Cricetulus griseus;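 note: CHO cells stably coexpressing TLR9 and MyD88 fusions from primary screen; compound exposure lasted 48 hours before viability readout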
[15] = target: Photoreceptor-specific nuclear receptor (Homo sapiens, UniProt Q9Y5X4); type: functional, cell-based;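 note: CHO-S cells with Gal4-NCOR and VP16-NR2E3 two-hybrid luciferase reporter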
[16] = Late stage assay provider counterscreen for TLR9 inhibitors: absorbance-based cell-based MTT cytotoxicity assay.; type: functional
[17] = inhibitors of fibronectin matrix deposition, dose response, AH1F cells, Alexa488-FN fluorescence, cherry-picks (AID 1035475); type: functional, cell-based
[18] = PAX5 activity inhibitors, dose response, selectivity assay for PAX8 inhibitor project, cell-based, plate reader, dry powder samples (AID 743047); type: functional;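 note: HEK293 cells carrying a Pax5 driven CD19 promoter luciferase reporter; potency of inhibitors that lower reporter luminescence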
[19] = Late-stage results from the probe development effort to identify antagonists of arginine vasopressin receptor 1a (AVPR1a): fluorescence-based cell-based dose response AVPR1a inhibition assay.; type: functional
Vasopressin V1b receptor = Vasopressin V1b receptor (Homo sapiens, UniProt P47901); experiment: Late-stage results from the probe development effort to identify antagonists of arginine vasopressin receptor 1a (AVPR1a): fluorescence-based cell-based dose response AVPR1b inhibition counterscreen assay.; type: functional
Vasopressin V2 receptor = Vasopressin V2 receptor (Homo sapiens, UniProt P30518); experiment: Late-stage results from the probe development effort to identify antagonists of arginine vasopressin receptor 1a (AVPR1a): fluorescence-based cell-based dose response AVPR2 inhibition counterscreen assay.; type: functional
[20] = Late-stage results from the probe development effort to identify antagonists of arginine vasopressin receptor 1a (AVPR1a): fluorescence-based cell-based dose response OXTR inhibition counterscreen assay.; type: functional
[21] = cytotoxicity in HeLa cells, dose response, cytotoxicity control, cell-based, 24 h, dry powder, set 2 (AID 651774); type: functional
[22] = HeLa cell cytotoxicity, dose response, cytotoxicity control, 24 h, plate reader, powder samples, set 3 (AID 651864); type: functional, cell-based
[23] = cytotoxicity in HeLa cells, dose response, cytotoxicity control, cell-based, plate reader, dry powder (AID 651946); type: functional
[24] = inhibitors of non-replicating M. tuberculosis, dose response, luciferase, dry powder (AID 651620); type: functional; conditions: Mycobacterium tuberculosis
[25] = HEK293T cell cytotoxicity, dose response, cytotoxicity control, CellTiter-Glo luminescence, dry powder, set 6 (AID 651949); type: functional, cell-based; conditions: HEK293
[26] = inhibitors of non-replicating M. tuberculosis, dose response, luciferase, dry powder (AID 651619); type: functional; conditions: Mycobacterium tuberculosis
[27] = growth inhibition of replicating M. tuberculosis, dose response, counter-screen, dry powder, IC90 (AID 651617); type: functional; conditions: Mycobacterium tuberculosis

Paired box protein Pax-8, sequence (Q06710 whole entry): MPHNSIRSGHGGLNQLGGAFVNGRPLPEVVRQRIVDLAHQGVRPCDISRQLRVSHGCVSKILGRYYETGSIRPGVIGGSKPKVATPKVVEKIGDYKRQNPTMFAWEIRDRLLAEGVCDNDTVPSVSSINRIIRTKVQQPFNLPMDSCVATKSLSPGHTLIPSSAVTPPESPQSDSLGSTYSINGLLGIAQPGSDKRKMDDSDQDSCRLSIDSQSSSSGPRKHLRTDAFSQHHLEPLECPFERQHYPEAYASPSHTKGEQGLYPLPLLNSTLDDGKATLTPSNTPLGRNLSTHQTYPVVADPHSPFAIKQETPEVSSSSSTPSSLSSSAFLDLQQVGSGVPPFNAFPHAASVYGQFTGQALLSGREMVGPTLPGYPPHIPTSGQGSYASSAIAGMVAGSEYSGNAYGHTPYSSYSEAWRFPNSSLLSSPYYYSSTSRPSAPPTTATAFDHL
Vasopressin V1b receptor, sequence (P47901 whole entry): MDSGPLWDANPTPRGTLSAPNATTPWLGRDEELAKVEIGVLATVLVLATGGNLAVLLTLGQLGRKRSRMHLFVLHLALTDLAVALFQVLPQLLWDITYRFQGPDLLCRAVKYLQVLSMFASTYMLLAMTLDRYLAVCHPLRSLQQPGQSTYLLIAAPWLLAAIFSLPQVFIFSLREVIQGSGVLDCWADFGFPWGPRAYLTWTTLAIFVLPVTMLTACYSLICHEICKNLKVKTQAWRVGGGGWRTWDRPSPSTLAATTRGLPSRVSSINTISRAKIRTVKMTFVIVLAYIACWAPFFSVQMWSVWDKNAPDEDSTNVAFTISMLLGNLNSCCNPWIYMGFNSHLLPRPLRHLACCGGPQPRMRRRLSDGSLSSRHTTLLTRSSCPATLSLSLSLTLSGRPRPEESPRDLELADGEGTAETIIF
Vasopressin V2 receptor, sequence (P30518 whole entry): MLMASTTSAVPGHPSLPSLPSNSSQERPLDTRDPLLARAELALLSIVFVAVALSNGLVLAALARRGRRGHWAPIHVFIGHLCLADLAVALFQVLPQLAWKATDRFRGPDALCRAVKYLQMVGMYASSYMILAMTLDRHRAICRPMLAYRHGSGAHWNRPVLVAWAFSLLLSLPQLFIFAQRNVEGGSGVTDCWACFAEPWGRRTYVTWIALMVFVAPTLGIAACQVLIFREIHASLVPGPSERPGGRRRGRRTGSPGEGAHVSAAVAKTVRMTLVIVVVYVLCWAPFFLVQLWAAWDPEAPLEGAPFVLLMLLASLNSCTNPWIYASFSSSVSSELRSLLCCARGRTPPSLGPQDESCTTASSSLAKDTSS
Beta Lactamase, sequence (Q932Y6 whole entry, the tested form may be a part): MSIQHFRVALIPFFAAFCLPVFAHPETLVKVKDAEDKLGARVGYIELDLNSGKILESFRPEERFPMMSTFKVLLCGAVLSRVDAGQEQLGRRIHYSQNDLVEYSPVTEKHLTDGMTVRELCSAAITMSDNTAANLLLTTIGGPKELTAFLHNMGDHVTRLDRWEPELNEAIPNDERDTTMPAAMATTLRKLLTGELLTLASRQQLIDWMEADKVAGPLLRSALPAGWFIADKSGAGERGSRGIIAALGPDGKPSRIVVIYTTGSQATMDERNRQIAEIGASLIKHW
Cytochrome P450 3A4, sequence (P08684 whole entry): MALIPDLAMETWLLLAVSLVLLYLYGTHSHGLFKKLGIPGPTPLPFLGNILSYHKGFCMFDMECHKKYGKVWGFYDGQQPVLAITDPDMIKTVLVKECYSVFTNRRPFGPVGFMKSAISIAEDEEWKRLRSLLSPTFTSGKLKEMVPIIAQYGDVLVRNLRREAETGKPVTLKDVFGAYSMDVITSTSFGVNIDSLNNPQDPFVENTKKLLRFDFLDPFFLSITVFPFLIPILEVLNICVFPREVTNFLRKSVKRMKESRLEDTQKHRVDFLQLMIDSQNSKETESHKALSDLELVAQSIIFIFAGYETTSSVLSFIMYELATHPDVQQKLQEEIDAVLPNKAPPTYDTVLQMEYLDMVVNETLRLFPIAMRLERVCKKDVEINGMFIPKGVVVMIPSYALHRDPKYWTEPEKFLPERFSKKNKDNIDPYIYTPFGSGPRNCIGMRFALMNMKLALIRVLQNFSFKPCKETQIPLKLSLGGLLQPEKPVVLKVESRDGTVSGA
Photoreceptor-specific nuclear receptor, sequence (Q9Y5X4 whole entry, the tested form may be a part): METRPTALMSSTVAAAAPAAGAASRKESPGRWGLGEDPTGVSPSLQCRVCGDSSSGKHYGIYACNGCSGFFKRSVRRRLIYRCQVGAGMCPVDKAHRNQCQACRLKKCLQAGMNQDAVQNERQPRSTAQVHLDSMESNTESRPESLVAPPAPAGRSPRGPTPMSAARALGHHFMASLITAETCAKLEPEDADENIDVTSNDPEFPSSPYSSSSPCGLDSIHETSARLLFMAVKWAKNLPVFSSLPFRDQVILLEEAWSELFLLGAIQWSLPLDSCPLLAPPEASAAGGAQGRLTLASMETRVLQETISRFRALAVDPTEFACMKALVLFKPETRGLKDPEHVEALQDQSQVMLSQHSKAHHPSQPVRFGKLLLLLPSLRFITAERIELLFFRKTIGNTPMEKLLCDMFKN
Beta-galactosidase, sequence (Q8VNN2 whole entry): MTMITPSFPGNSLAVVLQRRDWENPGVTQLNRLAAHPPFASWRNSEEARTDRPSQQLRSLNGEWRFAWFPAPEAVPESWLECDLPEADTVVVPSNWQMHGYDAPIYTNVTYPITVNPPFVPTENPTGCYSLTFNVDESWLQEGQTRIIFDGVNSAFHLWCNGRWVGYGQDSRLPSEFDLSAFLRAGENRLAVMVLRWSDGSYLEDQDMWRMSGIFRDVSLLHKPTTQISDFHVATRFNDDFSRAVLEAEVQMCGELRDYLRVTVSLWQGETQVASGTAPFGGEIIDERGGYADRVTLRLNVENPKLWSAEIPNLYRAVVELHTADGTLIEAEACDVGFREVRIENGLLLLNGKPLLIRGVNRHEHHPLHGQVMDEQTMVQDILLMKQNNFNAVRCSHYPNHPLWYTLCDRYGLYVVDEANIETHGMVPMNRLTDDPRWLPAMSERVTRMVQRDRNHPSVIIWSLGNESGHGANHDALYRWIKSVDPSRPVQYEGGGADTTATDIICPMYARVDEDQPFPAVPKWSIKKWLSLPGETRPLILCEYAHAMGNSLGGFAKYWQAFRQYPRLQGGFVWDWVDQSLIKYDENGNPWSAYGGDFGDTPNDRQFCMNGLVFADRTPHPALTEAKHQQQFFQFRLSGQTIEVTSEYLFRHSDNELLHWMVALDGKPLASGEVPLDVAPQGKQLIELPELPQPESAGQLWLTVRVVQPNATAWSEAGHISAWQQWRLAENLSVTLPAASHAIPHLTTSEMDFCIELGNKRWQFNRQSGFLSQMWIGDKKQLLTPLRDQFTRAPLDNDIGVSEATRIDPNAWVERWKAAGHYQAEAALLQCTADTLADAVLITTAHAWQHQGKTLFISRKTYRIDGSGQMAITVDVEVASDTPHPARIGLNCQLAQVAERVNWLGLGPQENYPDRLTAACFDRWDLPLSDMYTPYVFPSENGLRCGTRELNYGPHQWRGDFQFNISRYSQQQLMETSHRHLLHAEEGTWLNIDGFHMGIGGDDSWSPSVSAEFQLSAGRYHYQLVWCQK

For `O=C(c1cc(-c2cccs2)on1)N1CCN(C(c2ccccc2)c2ccccc2)CC1`, the AC50 [1] was 44.1 µM (active), the AC50 [2] was 9.18 µM (active) and the AC50 (Paired box protein Pax-8) was 0.733 µM (active). The AC50 [3] was 49.9 µM (active), the IC50 (Beta-galactosidase) was > 80 µM (inactive) and the AC50 [4] was 44.4 µM (active). The AC50 [5] was 80.1 µM (active), the AC50 [6] was 48.4 µM (active) and the AC50 [7] was > 100 µM (inactive). For the same molecule, the AC50 [8] was 60.2 µM (active).
With `CCOC(=O)c1ccc(Nc2nc(=O)c3cccnc3s2)cc1` the CC50 (Vero [9]) was > 25 µM (active), the IC50 [10] was 7.07 µM (active) and the AC50 (Cytochrome P450 3A4) was “inconclusive”. The AC50 (Cytochrome P450 1A2) was 14.1 µM (inconclusive), the CC50 [11] was > 50 µM (active) and the IC50 (cells) was 9.32 µM (active). The CC50 [12] was 22.4 µM (active), the IC50 [13] was 10.8 µM (active) and the IC50 (Vero [14]) was 6.32 µM (active).
For `O=S(=O)(/C=C/C=C/S(=O)(=O)c1ccccc1)c1ccccc1`, the IC50 (Beta Lactamase) was > 49.8 µM (inactive), the IC50 (CHO) was 0.959 µM (active) and the IC50 [15] was 1.61 µM (active). For the same molecule, the CC50 [16] was 0.59 µM (active).
For `CC(=O)Nc1cccc(-c2ccnc3c2CC(C)(C(=O)Nc2cccc(C(F)(F)F)c2)O3)c1` (stereo not given), the AC50 [17] was 22.7 µM (active).
In the case of `N#C[C@@H]1[C@@H](c2ccc(-c3ccccc3F)cc2)[C@@H](CO)N1C(=O)C1CCC1`, the AC50 [2] is reported as > 70 µM (inactive), the AC50 (Paired box protein Pax-8) is reported as 8.88 µM (active) and the AC50 [18] is reported as 60.8 µM (active). The AC50 [3] was > 70 µM (inactive) and the AC50 [7] was > 70 µM (inactive).
With `N#Cc1ccnc(N2CCC(C(=O)N(CC3CC3)c3ccc(Cl)cc3)CC2)c1` the IC50 [19] was 0.0628 µM (active), the IC50 (Vasopressin V1b receptor) was > 50 µM (inactive) and the IC50 (Vasopressin V2 receptor) was > 50 µM (inactive). For the same molecule, the IC50 [20] was 4.6 µM (active).
In the case of `CCC(CC)NC(=O)Cc1ccc(-c2ccccc2)cc1`, the AC50 [21] is reported as > 70 µM (inactive) and the AC50 [22] is reported as > 160 µM (inactive).
For `COc1cccc(-c2nnc(SCc3ccccn3)o2)c1`, the AC50 [23] was > 52 µM (inactive), the IC90 [24] was 4 µM (active) and the AC50 [25] was > 52 µM (inactive). For the same molecule, the IC90 [26] was 4 µM (active) and the IC90 [27] was 125 µM (active).
